Tests used:
[1] = system: Malme3M; assay: growth rate effect of drugs in sgGAPDHS genome-edited cells versus control; format: cell-based; conditions: spCas9/sgGAPDHS genome-editing
Description: FIGS. 8A-8C. GAPDHS is required for BRAF inhibitor sensitivity in vitro. Lentiviral spCas9/sgGAPDHS genome-editing in Malme3M 8A) reduces protein levels (WB) but not signaling consequences following vemurafenib or PD-0325901. 8B) reduction in the inherent NAD+/NADH ratio is seen, but not treatment affected changes; however the basal NADP+/NADPH ratio is higher and treatment causes divergent changes. 8C) Growth rates are less affected by vemurafenib, PD-0325901, cobimetinib, and PLX7904 due to sgGAPDHS targeting. Significance using 2-sided, 2-sample t-test; *p<0.05; **p<0.01.
We generated short-guide RNA (sgRNA) for CRISPR/Cas9-mediated genome-editing within the pLentiCRISPRv2 system to assess whether GAPDHS regulates sensitivity to BRAF-targeted drugs through the metabolic state. […] (FIG. 8C). […] We will expand these analyses to also include SKMEL28 and UACC62, and assess dabrafenib and encorafenib. We will also measure basal and changes following BRAF/MEK-inhibitor on the inherent metabolic state, measured as NAD(P)+/NAD(P)H ratios and GAPDH/S activity.

[2] = system: SKMEL2(NRAS-Q61R); assay: drug-mediated growth inhibition as percentage of baseline doubling rate; format: cell-based; conditions: NRAS-mutant SKMEL2
Description: FIGS. 5A-5B. Response to BRAF/MEK inhibition in melanoma cells was associated with the inherent metabolic state. 5A) Effects on cell doubling rates caused by vemurafenib and PD0325901 treatment in melanoma and carcinoma cell lines. […] 5B) Pearson metric of PD-0325901 growth rate effects used on gene-level transcription data (HuExon 1.0ST) for Gene Set Enrichment Analysis (GSEA) identified specific pathways associated with sensitivity, particularly oxidative phosphorylation, and resistance to BRAF/MEK inhibition.
Because melanoma cells undergo metabolic shift in response to BRAF- and MEK-targeted therapy, we wanted to characterize the drug sensitivities across a melanoma cell line cohort (FIG. 4A). To ensure that rapidly growing cells versus slow were compared in a normalized manner, we assessed the degree of drug-mediated growth inhibition as percentage of the baseline doubling rate for each cell line (FIG. 5A). This approach was based on classical chemotherapy effect measures [26;27 recently used by others].

## CCN(C)S(=O)(=O)Nc1ccc(F)c(C(=O)c2c[nH]c3ncc(-c4cnc(C5CC5)nc4)cc23)c1F [PLX7904]
[1]
  sensitivity (measured as growth rate effect) of sgGAPDHS cells versus control: reduced sensitivity

## O=C(NOC[C@H](O)CO)c1ccc(F)c(F)c1Nc1ccc(I)cc1F [PD-0325901]
[1]
  sensitivity (measured as growth rate effect) of sgGAPDHS cells versus control: reduced sensitivity

## Cc1nc(NC(=O)N2CCC[C@H]2C(N)=O)sc1-c1ccnc(C(C)(C)C(F)(F)F)c1 [BYL719]
[1]
  sensitivity (measured as growth rate effect) of sgGAPDHS cells versus control: did not, however, observe reduced sensitivity

## CCCS(=O)(=O)Nc1ccc(F)c(C(=O)c2c[nH]c3ncc(-c4ccc(Cl)cc4)cc23)c1F [vemurafenib]
[2]
  doubling rate under BRAF inhibitor, % of normal doubling rate: 100%

## O=C(c1ccc(F)c(F)c1Nc1ccc(I)cc1F)N1CC(O)([C@@H]2CCCCN2)C1 [cobimetinib]
[1]
  sensitivity (measured as growth rate effect) of sgGAPDHS cells versus control: reduced sensitivity
